In ChEMBL document CHEMBL5113480, “Discovery of novel biphenyl-substituted pyridone derivatives as potent non-nucleoside reverse transcriptase inhibitors with promising oral bioavailability” (Eur J Med Chem, 2022):

How the values were obtained:
[1] = Cytotoxicity against human MT4 cells assessed as reduction on cell growth by MTT assay; assay type: toxicity, cell-based
[2] = tested on: Human immunodeficiency virus 1; assay: Antiviral activity against HIV-1 ROD infected in human MT4 cells assessed as reduction in viral replication by MTT assay; assay type: functional, organism-based
[3] = tested on: Human immunodeficiency virus 1; assay: Antiviral activity against HIV-1 IIIB infected in human MT4 cells assessed as reduction in viral replication by MTT assay; assay type: functional, organism-based; conditions: Human immunodeficiency virus 1, IIIB
[4] = Selectivity index, ratio of CC50 for cytotoxicity against human MT4 cells to EC50 of Anti-HIV activity against HIV-1 IIIB infected in human MT4 cells; assay type: toxicity, cell-based; conditions: read-out: Ratio CC50/EC50
[5] = tested on: Human immunodeficiency virus 1; assay: Antiviral activity against HIV-1 Y188L mutant infected in human MT4 cells assessed as reduction in viral replication by MTT assay; assay type: functional, organism-based; conditions: Human immunodeficiency virus 1, Y188L mutant
[6] = target: Human immunodeficiency virus type 1 reverse transcriptase (Human immunodeficiency virus 1, UniProt Q72547); assay: Inhibition of wild type HIV-1 Reverse transcriptase
[7] = tested on: Human immunodeficiency virus 1; assay: Antiviral activity against HIV-1 K103N mutant infected in human MT4 cells assessed as reduction in viral replication by MTT assay; assay type: functional, organism-based; conditions: Human immunodeficiency virus 1, K103N mutant
[8] = tested on: Human immunodeficiency virus 1; assay: Antiviral activity against HIV-1 Y181C mutant infected in human MT4 cells assessed as reduction in viral replication by MTT assay; assay type: functional, organism-based; conditions: Human immunodeficiency virus 1, Y181C mutant
[9] = tested on: Human immunodeficiency virus 1; assay: Antiviral activity against HIV-1 L100I mutant infected in human MT4 cells assessed as reduction in viral replication by MTT assay; assay type: functional, organism-based; conditions: Human immunodeficiency virus 1, L100I mutant
[10] = tested on: Human immunodeficiency virus 1; assay: Antiviral activity against HIV-1 F227L-V106A mutant infected in human MT4 cells assessed as reduction in viral replication by MTT assay; assay type: functional, organism-based; conditions: Human immunodeficiency virus 1, F227L-V106A mutant
[11] = tested on: Human immunodeficiency virus 1; assay: Antiviral activity against HIV-1 K103N-Y181C mutant infected in human MT4 cells assessed as reduction in viral replication by MTT assay; assay type: functional, organism-based; conditions: Human immunodeficiency virus 1, K103N-Y181C mutant
[12] = tested on: Human immunodeficiency virus 1; assay: Antiviral activity against HIV-1 E138K mutant infected in human MT4 cells assessed as reduction in viral replication by MTT assay; assay type: functional, organism-based; conditions: Human immunodeficiency virus 1, E138K mutant

Row | SMILES | CC50 [1] [µM] | EC50 [2] [µM] | EC50 [3] [µM] | selectivity ratio [4] | EC50 [5] [µM] | IC50 [6] [nM] | EC50 [7] [µM] | EC50 [8] [µM] | EC50 [9] [nM] | EC50 [10] [µM] | EC50 [11] [µM] | EC50 [12] [nM]
1 | Cc1cccc(-c2ccc(Oc3c(C(F)(F)F)ccn(Cc4n[nH]c(=O)n4C)c3=O)c(Cl)c2)c1 | 24.7 | > 35 | > 35 | < 1 |  |  |  |  |  |  |  | 
2 | Cn1c(Cn2ccc(C(F)(F)F)c(Oc3ccc(-c4cccc(F)c4)c(F)c3)c2=O)n[nH]c1=O | 51.5 | > 35 | 1.42 | 36.4 | > 35 | 2330 | 4.39 | 28.6 | 1520 | > 35 | > 35 | 2160
3 | Cn1c(Cn2ccc(C(F)(F)F)c(Oc3ccc(-c4ccc(C#N)cc4)cc3)c2=O)n[nH]c1=O | 74.3 | > 35 | 6.23 | 11.9 | > 35 | 15900 | 26.9 | 38.8 | 7680 | > 35 | > 35 | 23700
4 | Cn1c(Cn2ccc(C(F)(F)F)c(Oc3ccc(-c4cccc(C#N)c4)cc3)c2=O)n[nH]c1=O | 114 | > 35 | 4.79 | 23.7 | > 35 | 14400 | 14.3 | 39.1 | 10800 | > 35 | > 35 | 12200
5 | Cc1cc(Oc2c(C(F)(F)F)ccn(Cc3n[nH]c(=O)n3C)c2=O)ccc1-c1ccc(F)cc1 | 23.7 | > 35 | > 35 | ≤ 4 |  |  |  |  |  |  |  | 
6 | Cc1ccc(-c2ccc(Oc3c(C(F)(F)F)ccn(Cc4n[nH]c(=O)n4C)c3=O)c(Cl)c2)cc1 | 50.9 | > 35 | > 35 | < 1 |  |  |  |  |  |  |  | 
7 | Cn1c(Cn2ccc(C(F)(F)F)c(Oc3ccc(-c4cc(F)cc(C#N)c4)cc3)c2=O)n[nH]c1=O | 90.5 | > 35 | 15.2 | 5.95 | > 35 | 8100 | 15.5 | 42.2 | 9010 | > 35 | > 35 | 13900
8 | Cn1c(Cn2ccc(C(F)(F)F)c(Oc3ccc(-c4cc(F)cc(C#N)c4)c(F)c3)c2=O)n[nH]c1=O | 105 | > 35 | 0.74 | 143 | 39.8 | 1020 | 2.47 | 12.1 | 1860 | > 35 | 36.6 | 1340
9 | Cc1ccc(-c2ccc(Oc3c(C(F)(F)F)ccn(Cc4n[nH]c(=O)n4C)c3=O)cc2F)cc1 | 28.2 | > 35 | 8.05 | 3.52 |  |  |  |  |  |  |  | 
10 | Cc1ccc(-c2cc(F)c(Oc3c(C(F)(F)F)ccn(Cc4n[nH]c(=O)n4C)c3=O)c(F)c2)cc1 | 20.5 | > 35 | > 35 | < 1 |  |  |  |  |  |  |  | 
11 | Cn1c(Cn2ccc(C(F)(F)F)c(Oc3ccc(-c4ccc(F)c(C#N)c4)cc3)c2=O)n[nH]c1=O | 49.1 | > 35 | 7.28 | 6.75 |  |  |  |  |  |  |  | 
12 | Cc1cccc(-c2ccc(Oc3c(C(F)(F)F)ccn(Cc4n[nH]c(=O)n4C)c3=O)c(C)c2)c1 | 19.1 | > 35 | > 35 | ≤ 2 |  |  |  |  |  |  |  | 
13 | Cn1c(Cn2ccc(C(F)(F)F)c(Oc3c(F)cc(-c4ccc(F)cc4)cc3F)c2=O)n[nH]c1=O | 18.2 | > 35 | > 35 | ≤ 2 |  |  |  |  |  |  |  | 
14 | Cc1cccc(-c2ccc(Oc3c(C(F)(F)F)ccn(Cc4n[nH]c(=O)n4C)c3=O)c(F)c2)c1 | 20.3 | > 35 | > 35 | ≤ 1 |  |  |  |  |  |  |  | 
15 | Cn1c(Cn2ccc(C(F)(F)F)c(Oc3ccc(-c4cccc(F)c4)cc3)c2=O)n[nH]c1=O | 48.3 | > 35 | > 35 | < 1 |  |  |  |  |  |  |  | 
16 | Cn1c(Cn2ccc(C(F)(F)F)c(Oc3ccc(-c4cccc(F)c4)cc3F)c2=O)n[nH]c1=O | 46.8 | > 35 | > 35 | ≤ 1 |  |  |  |  |  |  |  | 
17 | Cn1c(Cn2ccc(C(F)(F)F)c(Oc3ccc(-c4ccc(C#N)cc4)c(F)c3)c2=O)n[nH]c1=O | 48.5 | > 35 | 1.28 | 37.8 | > 35 | 1520 | 3.65 | 19.4 | 1190 | > 35 | > 35 | 1960

Row | SMILES | CC50 [1] [µM] | EC50 [2] [µM] | EC50 [3] [µM] | selectivity ratio [4] | EC50 [5] [µM] | IC50 [6] [nM] | EC50 [7] [µM] | EC50 [8] [µM] | EC50 [9] [nM] | EC50 [10] [µM] | EC50 [11] [µM] | EC50 [12] [nM]
18 | Cc1ccc(-c2ccc(Oc3c(C(F)(F)F)ccn(Cc4n[nH]c(=O)n4C)c3=O)cc2)cc1 | 25 | > 35 | > 35 | < 1 |  |  |  |  |  |  |  | 
19 | Cc1ccc(-c2ccc(Oc3c(C(F)(F)F)ccn(Cc4n[nH]c(=O)n4C)c3=O)cc2C)cc1 | 26.6 | > 35 | > 35 | < 1 |  |  |  |  |  |  |  | 
20 | Cn1c(Cn2ccc(C(F)(F)F)c(Oc3ccc(-c4cccc(F)c4)cc3Cl)c2=O)n[nH]c1=O | 20.1 | > 35 | > 35 | < 1 |  |  |  |  |  |  |  | 
21 | Cn1c(Cn2ccc(C(F)(F)F)c(Oc3ccc(-c4ccc(F)cc4)cc3Cl)c2=O)n[nH]c1=O | 16.7 | > 35 | > 35 | < 1 |  |  |  |  |  |  |  | 
22 | Cc1cccc(-c2ccc(Oc3c(C(F)(F)F)ccn(Cc4n[nH]c(=O)n4C)c3=O)cc2F)c1 | 27.7 | > 35 | 4.58 | 6.05 | > 35 | 17900 | > 35 | > 35 | 4830 | 7.66 | > 35 | 
23 | Cc1ccc(-c2ccc(Oc3c(C(F)(F)F)ccn(Cc4n[nH]c(=O)n4C)c3=O)c(F)c2)cc1 | 38 | > 35 | > 35 | < 1 |  |  |  |  |  |  |  | 
24 | Cn1c(Cn2ccc(C(F)(F)F)c(Oc3ccc(-c4ccc(F)cc4)cc3F)c2=O)n[nH]c1=O | 24.1 | > 35 | > 35 | < 1 |  |  |  |  |  |  |  | 
25 | Cc1cccc(-c2cc(F)c(Oc3c(C(F)(F)F)ccn(Cc4n[nH]c(=O)n4C)c3=O)c(F)c2)c1 | 20.9 | > 35 | > 35 | < 1 |  |  |  |  |  |  |  | 
26 | Cn1c(Cn2ccc(C(F)(F)F)c(Oc3ccc(-c4ccc(F)cc4)c(F)c3)c2=O)n[nH]c1=O | 25.6 | > 35 | 8.92 | 2.87 |  |  |  |  |  |  |  | 
27 | Cc1ccccc1-c1ccc(Oc2c(C(F)(F)F)ccn(Cc3n[nH]c(=O)n3C)c2=O)cc1F | 33.8 | > 35 | 3.93 | 8.6 | 104 | 3210 | 7.78 | 5.54 | 5300 | > 35 | 115 | 4510
28 | Cc1ccc(-c2ccc(Oc3c(C(F)(F)F)ccn(Cc4n[nH]c(=O)n4C)c3=O)c(C)c2)cc1 | 16.9 | > 35 | > 35 | ≤ 1 |  |  |  |  |  |  |  | 
29 | Cn1c(Cn2ccc(C(F)(F)F)c(Oc3ccc(-c4cccc(C#N)c4)c(F)c3)c2=O)n[nH]c1=O | 104 | > 35 | 0.25 | 424 | 46.3 | 450 | 1.22 | 4.84 | 700 | > 35 | 30.6 | 800
30 | Cn1c(Cn2ccc(C(F)(F)F)c(Oc3ccc(-c4ccc(F)cc4)cc3)c2=O)n[nH]c1=O | 36.5 | > 35 | > 35 | < 1 |  |  |  |  |  |  |  | 
31 | Cn1c(Cn2ccc(C(F)(F)F)c(Oc3ccc(-c4ccc(F)c(C#N)c4)c(F)c3)c2=O)n[nH]c1=O | 69.5 | > 35 | 0.89 | 78.5 | 41.4 | 1120 | 2.14 | 22.3 | 1750 | 42.4 | 44.8 | 1510
32 | Cn1c(Cn2ccc(C(F)(F)F)c(Oc3ccc(-c4cccc(C#N)c4)c(F)c3F)c2=O)n[nH]c1=O | 48.8 | > 35 | 0.96 | 50.8 | > 35 | 1310 | 2.87 | 8.36 | 1590 | > 35 | > 35 | 1600
33 | Cc1cccc(-c2ccc(Oc3c(C(F)(F)F)ccn(Cc4n[nH]c(=O)n4C)c3=O)cc2)c1 | 32.3 | > 35 | > 35 | < 1 |  |  |  |  |  |  |  | 
34 | Cc1cc(C#N)cc(C)c1Oc1nc(Nc2ccc(C#N)cc2)nc(N)c1Br [ETRAVIRINE] | > 4.6 | > 35 | 0.029 | > 1600 | 0.018 |  |  |  |  |  | 0.031 | 
